# Values joined by “and” are separate entries in the source; they are usually repeats but may differ in a detail not shown here. Identical values can stand only once. Like-named read-outs stand apart in the source and are kept apart here.
# Columns and labels:
# [1] = system: E. coli W3110; assay: MIC by broth microdilution; format: cell-based, Escherichia coli
# In short: (§1)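 Broth microdilution in CAMHB: twofold compound series inoculated with 100-fold-diluted bacteria from exponential growth (OD600 0.5, 37 °C); kanamycin 50 µg ml^−1 added for Keio collection strains. Overnight incubation, 37 °C, 600 r.p.m. shaking.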
# [2] = system: 60-resistant (60-r) isolates of E. coli W3110; assay: microbe, parasite or virus in culture; format: cell-based, Escherichia coli
# Method: (§2) MIC was determined by broth microdilution. Single-colony cultures were grown to exponential phase (OD600 of 0.5) aerobically at 37 °C. In case of strains from the Keio collection, 50 µg ml^−1 kanamycin was supplemented to the media to ascertain a homogeneous population. The bacterial suspensions were diluted 100-fold in CAMHB and 50 µl was added to a twofold serial dilution series of test compounds (50 µl per well) in polypropylene 96-well microtitre plates to reach a volume of 100 µl. The plates were sealed with breathable membranes and incubated overnight at 37 °C with constant shaking (600 r.p.m.). The MIC was determined as the lowest concentration at which no visible bacterial growth was observed as compared with the inoculum controls from the median of a minimum of triplicates.
# The plates were incubated at 37 °C and checked for growth after 24 and 48 h. […] Nine colonies with an increased MIC were selected for further analysis and stored as glycerol stocks.
# [3] = system: K. pneumoniae ATCC 29665; assay: MIC by broth microdilution; format: cell-based, Klebsiella pneumoniae; details: Klebsiella pneumoniae, ATCC29665, read-out: MIC K. pneumoniae ATCC 29665
# In short: as §1
# [4] = system: A. baumannii ATCC BAA747; assay: MIC by broth microdilution; format: cell-based; details: Acinetobacter baumannii, ATCCBAA747; read-out: MIC A. baumannii ATCC BAA747
# Method: as §2
# [5] = system: P. aeruginosa ATCC 27853; assay: MIC by broth microdilution; format: cell-based; details: Pseudomonas aeruginosa, ATCC27853; read-out: MIC P. aeruginosa ATCC 27853
# Method: as §2
# [6] = system: S. aureus ATCC 29213 / ATCC BAA1717; assay: MIC by broth microdilution; format: cell-based; details: Staphylococcus aureus
# Method: as §2
# [7] = system: E. coli BW25113 and single-gene knockouts; assay: MIC on E. coli strains of the Keio collection; format: cell-based, Escherichia coli; details: Escherichia coli, BW25113, read-out: MIC E. coli BW25113, parent strain
# Method: as §2
# [8] = system: E. coli ATCC 25922; assay: MIC by broth microdilution; format: cell-based; details: Escherichia coli, ATCC25922; read-out: MIC E. coli ATCC 25922
# Method: as §2, with “r.p.m.).” for “r.p.m.). The MIC was determined as the lowest concentration at which no visible bacterial growth was observed as compared with the inoculum controls from the median of a minimum of triplicates.”
# [9] = system: HEK293T; assay: Cytotoxicity assay (MTT); format: cell-based, human; details: Homo sapiens, HEK-293T, 24 h, MTT
# In short: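 HEK293T cells, maintained at 37 °C and 7% CO2 in Dulbecco’s modified Eagle medium with GlutaMax, antibiotics and serum, were plated in clear 96-well plates in 100 µl medium containing 1% fetal bovine serum and left 24 h to attach. After 24 h compound exposure, MTT (0.40 mg ml^−1) was added for 2 h. Formazan was dissolved in 100 µl DMSO and absorbance measured at 570 nm. Background-corrected IC50 values came from variable-slope non-linear fits.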
# [10] = system: HepG2; assay: Cytotoxicity assay (MTT); format: cell-based, human; details: Homo sapiens, HepG2, 24 h, MTT, 24 h
# [11] = system: E. coli W3110; assay: H-89 derivatives rescreen, 50 µM; format: cell-based; details: Escherichia coli, H-89 derivative rescreen, highest 50 µM
# Method: From glycerol stocks, E. coli W3110 was cultured on blood agar plates (PB5039A, Thermo Scientific) by overnight (18 ± 2 h) aerobic incubation at 37 °C. A single colony was transferred to tryptic soy broth (TSB, 02-200-500, Scharlab). The cultures were grown to exponential phase (OD600 of 0.5) at 37 °C. The bacterial suspensions were diluted 200-fold in cation-adjusted Mueller–Hinton broth (CAMHB) and 99 µl was added to a library of test compounds (1 µl 10 mM DMSO stock, per well in technical duplicates) in polypropylene 96-well microtitre plates to reach a volume of 100 µl and a final concentration of 100 µM for each test compound and a maximum of 1% DMSO. […] Screening hits were selected from the wells where no visible bacterial growth was observed, as compared with the inoculum controls containing 1% DMSO. The follow-up screen of H-89 derivatives was performed under similar conditions with a final concentration of 50 µM.
# [12] = WT, broth microdilution, read-out: MIC E. coli W3110
# [13] = Escherichia coli, W3110, read-out: MIC E. coli W3110
# [14] = Escherichia coli, E. coli W3110 60-r1
# [15] = Escherichia coli, E. coli W3110 60-r3
# [16] = Escherichia coli, E. coli W3110 60-r6
compound,measurement,setting,value
Neomycin,MIC,[1]; E. coli W3110,1 µg/mL
same,MIC,[1]; [12],1.5 µM
same,MIC,[2]; E. coli W3110 60-r1,0.75 µM and 0.5 µg/mL
same,MIC,[2]; E. coli W3110 60-r3,1.5 µM and 1 µg/mL
same,MIC,[2]; E. coli W3110 60-r6,0.75 µM and 0.5 µg/mL
CC(C)(O/N=C(\C(=O)N[C@@H]1C(=O)N2C(C(=O)[O-])=C(C[n+]3ccccc3)CS[C@H]12)c1csc(N)n1)C(=O)O [Ceftazidime],MIC,"[1]; Escherichia coli, W3110",0.4 µg/mL
same,MIC,[1]; [13],0.75 µM
same,MIC,[2]; [14],0.375 µM and 0.2 µg/mL
same,MIC,[2]; [15],0.75 µM and 0.4 µg/mL
same,MIC,[2]; [16],0.75 µM and 0.4 µg/mL
C[C@@H](O)[C@H]1C(=O)N2C(C(=O)O)=C(SCCN=CN)C[C@H]12 [Imipenem],MIC,"[1]; Escherichia coli, W3110",0.1 µg/mL
same,MIC,[1]; [13],0.375 µM
same,MIC,[2]; [14],0.75 µM and 0.2 µg/mL
same,MIC,[2]; [15],0.375 µM and 0.1 µg/mL
same,MIC,[2]; [16],0.375 µM and 0.1 µg/mL
O=C(N[C@H](CO)[C@H](O)c1ccc([N+](=O)[O-])cc1)C(Cl)Cl [Chloramphenicol],MIC,"[1]; Escherichia coli, W3110",4 µg/mL
same,MIC,[1]; [13],12.4 µM
same,MIC,[2]; [14],12.4 µM and 4 µg/mL
same,MIC,[2]; [15],12.4 µM and 4 µg/mL
same,MIC,[2]; [16],12.4 µM and 4 µg/mL
O=S(=O)(NCCNCc1ccc(-c2cccnc2)cc1)c1cccc2cnccc12 [Compound 1],MIC,"[1]; Escherichia coli, W3110, WT, broth microdilution, read-out: MIC E. coli W3110",6.25 µM
same,MIC,"[1]; Escherichia coli, W3110, follow-up of the 12 library hits, read-out: MIC E. coli",6.25 µM
same,MIC,"[1]; Escherichia coli, W3110, read-out: MIC E. coli",2.6 µg/mL
same,MIC,[3],12.5 µM
same,MIC,[4],> 50 µM
same,MIC,[5],> 50 µM
same,MIC,[6]; read-out: MIC S. aureus ATCC 29213,> 50 µM
same,MIC,[6]; read-out: MIC S. aureus ATCC BAA1717,> 50 µM
same,MIC,[7],12.5 µM
same,MIC,[8],25 µM
same,MIC,[2]; [14],> 100 µM
same,MIC,[2]; [15],100 µM
same,MIC,[2]; [16],> 100 µM
same,IC50,[9],> 50 µM
same,IC50,[10],> 50 µM
same,MIC,[11],6.25 µM
Colistin,MIC,[1]; E. coli W3110,0.5 µg/mL
same,MIC,[1]; [12],0.19 µM
same,MIC,[2]; E. coli W3110 60-r1,0.375 µM and 1 µg/mL
same,MIC,[2]; E. coli W3110 60-r3,0.375 µM and 1 µg/mL
same,MIC,[2]; E. coli W3110 60-r6,0.19 µM and 0.5 µg/mL
O=S(=O)(NCCNCCCc1ccc(-c2cnc3[nH]ccc3c2)cc1)c1ccc(Cl)c(Cl)c1 [Compound 22],MIC,[11],> 50 µM
C[C@@H](O)[C@H]1C(=O)N2C(C(=O)O)=C(S[C@@H]3CN[C@H](C(=O)N(C)C)C3)[C@H](C)[C@H]12 [Meropenem],MIC,"[1]; Escherichia coli, W3110",0.02 µg/mL
same,MIC,[1]; [13],0.05 µM
same,MIC,[2]; [14],0.09 µM and 0.04 µg/mL
same,MIC,[2]; [15],0.05 µM and 0.02 µg/mL
same,MIC,[2]; [16],0.05 µM and 0.02 µg/mL
O=S(=O)(NCCNCc1ccc2cc(-c3cccnc3)ccc2c1)c1cccc2cnccc12 [Compound 5],MIC,[11],> 50 µM
O=C(NCCNC/C=C/c1ccc(-c2cccnc2)cc1)c1cccc2cnccc12 [Compound 37],MIC,[11],> 50 µM
Nc1ncccc1-c1ccc(CCC(=O)NCCNS(=O)(=O)c2cccc3cnccc23)cc1 [Compound 40],MIC,[11],> 50 µM
O=C(CCc1ccc(-c2cnc3[nH]ccc3c2)cc1)NCCNS(=O)(=O)c1ccccc1 [Compound 12],MIC,[11],> 50 µM
CC(C)(C)c1cc(C(=O)NCC#Cc2cccnc2)no1 [Compound 32],MIC,[11],> 50 µM
CN(C/C=C/c1ccc(-c2cccnc2)cc1)CCNS(=O)(=O)c1cccc2cnccc12 [Compound 9],MIC,[11],> 50 µM
CNC(=O)c1ncccc1-c1ccc(CCC(=O)NCCNS(=O)(=O)c2cccc3cnccc23)cc1 [Compound 43],MIC,[11],> 50 µM
Cc1ccc(S(=O)(=O)NCCNCCCc2ccc(-c3cnc4[nH]ccc4c3)cc2)cc1 [Compound 18],MIC,[11],> 50 µM
